This passage reports IC50 and Activity results from ChEMBL document CHEMBL5143625, “Isolation, synthesis and bioactivity evaluation of isoquinoline alkaloids from Corydalis hendersonii Hemsl. against gastric cancer in vitro and in vivo” (Bioorg Med Chem, 2022).

The structures appear in SMILES notation. Some results are limits rather than exact numbers.

For data set [1], the system named is MGC-803. The data set is described as follows: Antiproliferative activity against human MGC-803 cells assessed as reduction in cell viability after 24 hrs by MTT assay. It counts as functional, cell-based. As to conditions: MGC-803, 24 h.
The subject of the next data set is GES1. Description: Antiproliferative activity against human GES1 cells assessed as reduction in cell viability after 24 hrs by MTT assay. The note with it: GES1, 24 h. It is filed as functional, cell-based.
The next data set has as its system HGC-27. The data set is described as follows: Antiproliferative activity against human HGC-27 cells assessed as reduction in cell viability after 24 hrs by MTT assay. It is filed as functional, cell-based. As to conditions: HGC-27, 24 h. For orientation: Tetrazolium dyes change colour on reduction, which living cells bring about.
Data set [2] relates to MGC-803. Description: Antitumor activity against human MGC-803 cells xenografted in immunodeficient nude mouse assessed as tumor volume at 10 mg/kg, ip administered for 3 weeks (reference value: 1039.6 mm3). It counts as functional. A general note: A xenograft is tissue or cells of one species grown in another, often human tumour cells in immunodeficient mice.
The nature of data set [3]: Toxicity in immunodeficient nude mouse xenografted with human MGC-803 cells assessed as reduction in body weight at 10 mg/kg, ip administered for 3 weeks relative to control. It is filed as organism-based. Also noted: scale not given: the % may be the effect or the level left. The note with it: in vivo, 504 h.
The subject of data set [4] is MGC-803. The data set is described as follows: Antitumor activity against human MGC-803 cells xenografted in immunodeficient nude mouse assessed as tumor weight at 10 mg/kg, ip administered for 3 weeks (reference value: 157.8 mg). It counts as functional.

As to `COc1cc2c(cc1Cc1nccc3cc4c(cc13)OCO4)OCO2`, the figures for the IC50 in the data set with MGC-803 [1], with GES1 and in the data set with HGC-27 were greater than 150 µM, greater than 150 µM and 122 µM, respectively.
As to `COc1ccc2c(c1OC)CN(C)CCc1cc3c(cc1C(=O)C2)OCO3` [ALLOCRYPTOPINE], the IC50 in the data set with MGC-803 [1] is 109 µM; with GES1 it was greater than 150 µM; with HGC-27 it was 97.8 µM.
On the same counts, the results for `CCOC(=O)c1c(C(=O)c2nccc3cc4c(cc23)OCO4)ccc2c1OCO2` are 76 µM, 147 µM and 66.1 µM.
On the same counts, the results for `COc1cc2c(cc1O)[C@@H]1Cc3ccc(OC)c(O)c3CN1CC2` [SCOULERINE] are 12.6 µM, 95.3 µM and 6.1 µM.
Take `COc1cc2c(cc1C(=O)c1nccc3cc4c(cc13)OCO4)OCO2`: the values for the IC50 in the data set on MGC-803 [1], with GES1 and with HGC-27 were 7.8 µM, 76 µM and 9.3 µM, respectively.
For the compound `COc1cc2c(cc1O)C1Cc3ccc4c(c3CN1CC2)OCO4` (stereo not drawn) [CHEILANTHIFOLINE], the IC50 was determined as 83.2 µM with MGC-803 [1], 114 µM with GES1 and 38.3 µM in the data set on HGC-27.
The like results for `c1cc2c(c3c1CC1c4cc5c(cc4CCN1C3)OCO5)OCO2` (stereo not drawn) were, in that order, 107 µM, greater than 150 µM and 55.1 µM.
On the same counts, the results for `O=c1c2c3c(ccc2cc2n1CCc1cc4c(cc1-2)OCO4)OCO3` are 61.5 µM, greater than 150 µM and 54.6 µM.
The like results for `CC(=O)c1ccc2c(c1Cn1ccc3cc4c(cc3c1=O)OCO4)OCO2` were, in that order, 79.9 µM, 137 µM and 53.8 µM.
Regarding `O=c1[nH]cc(F)c(=O)[nH]1` [FLUOROURACIL], the figures for the IC50 with MGC-803 [1], with GES1 and in the data set with HGC-27 were 28.6 µM, 49.6 µM and 45.2 µM, respectively. In addition, the Activity with MGC-803 [2] is given as 375.4 mm3; in data set [3], 14.2%; with MGC-803 [4] it was 157.8 mg.
For `CN1CCc2cc3c(cc2[C@H]1[C@H]1OC(=O)c2c1ccc1c2OCO1)OCO3`, the values for the IC50 with MGC-803 [1], with GES1 and in the data set with HGC-27 were greater than 150 µM, greater than 150 µM and 100 µM, respectively.
In the case of `CN1CCc2cc3c(cc2C(=O)Cc2ccc4c(c2C1)OCO4)OCO3`, the IC50 in the data set with MGC-803 [1] is 94.5 µM; in the data set with GES1 it was greater than 150 µM; in the data set with HGC-27, 121 µM.
The like results for `COc1cc2c(cc1OC)C1Cc3ccc4c(c3CN1CC2)OCO4` (stereo not drawn) were, in that order, 94.3 µM, greater than 150 µM and 81 µM.
With `O=C1NCCc2cc3c(cc21)OCO3` [NOROXYHYDRASTININE], the figures for the IC50 in the data set with MGC-803 [1], in the data set on GES1 and in the data set on HGC-27 were greater than 150 µM, greater than 150 µM and 120 µM, respectively.
For the compound `COc1cc(/C=C/C(=O)NCCc2ccc(O)cc2)ccc1O` [N-TRANS-FERULOYL TYRAMINE], the IC50 in the data set on MGC-803 [1] is 98.3 µM; in the data set with GES1 it was greater than 150 µM; in the data set on HGC-27, 84.5 µM.

By IC50 is commonly meant the concentration needed to halve the response being measured.
